Where two headings read alike, the source gives them in different places.
What was measured:
CT26 = experiment: CellTiter-Glo cell viability assay; type: cell-based, Murine; settings: for IC50: Mus musculus, CT26, MURINE COLON, Colon, 72 hours
Method: (§1) Cell viability in the presence of varying concentrations of the above listed compounds at different time points was used to assess cytotoxicity and the effect of the compounds on cell proliferation.
(§2) Cell viability was measured by the CellTiter-Glo® cell viability assay from Promega (Madison, Wis.). The CellTiter-Glo® Luminescent Cell Viability Assay is a homogeneous method to determine the number of viable cells in culture based on quantitation of the ATP present, which signals the presence of metabolically active cells. Following treatment, CellTiter-Glo® is added to treatment wells and incubated at 37° C. luminescence values were measured at using a Molecular Devices Spectramax microplate reader
(§3) Cells were grown to 70% confluency, trypsinized, counted, and seeded in 96 well flat-bottom plates at a final concentration of 2.5×10^3-5×10^3 cells/well (Day 0). Cells were allowed to incubate in growth media for 24 hours. Treatment with the test agents or standard agents began on Day 1 and continued for 72 hours. At the 72-hour timepoint, treatment containing media was removed. Viable cell numbers are quantified by the CellTiter-Glo® cell viability assay as described above. Results from these studies were used to calculate an IC50 value (concentration of drug that inhibits cell growth by 50 percent of control) for each compound.
(§4) For single agent and combination studies, data from each experiment was collected and expressed as % Cell Growth using the following calculation: % Cell Growth=(ftest/fvehicle)×100
(§5) Where test is the fluorescence of the tested sample, and fvehicle is the fluorescence of the vehicle in which the drug is dissolved. Dose response graphs and IC50 values were generated using Prism 6 software (GraphPad) using the following equation: Y=(Top-Bottom)/(1+10^((logIC^50^-X)-HillSlope))

GL261 = experiment: CellTiter-Glo cell viability assay; type: cell-based, Murine; settings: for IC50: Mus musculus, GL261, MURINE BRAIN, Murine Glioma, 72 hours
Method: as §1, §2, §3, §4, §5

MC38 = experiment: CellTiter-Glo cell viability assay; type: cell-based, Murine; settings: for IC50: Mus musculus, MC-38, MC38, MURINE COLON, Colon, 72 hours
Method: as §1, §2, §3, §4, §5

4T1 = experiment: CellTiter-Glo cell viability assay; type: cell-based, Murine; settings: for IC50: Mus musculus, 4T1, BREAST, Murine Breast Tumor, 72 hours
Method: as §1, §2, §3, §4, §5

L1210 = experiment: CellTiter-Glo cell viability assay; type: cell-based, Murine; settings: for IC50: Mus musculus, L1210, HEMATOPIETIC, Murine Leukemia, 72 hours
Method: as §1, §2, §3, §4, §5

SKUT-1 = experiment: CellTiter-Glo cell viability assay; type: cell-based; settings: for IC50: Homo sapiens, SK-UT-1, SKUT-1, ENDOMETRIAL, Uterine, 72 hours
Method: as §1, §2, §3, §4, §5

KMM-1 = experiment: CellTiter-Glo cell viability assay; type: cell-based; settings: for IC50: KMM-1, HEMATOPIETIC, MM, 72 hours
Method: as §1, §2, §3, §4, §5

G401 = experiment: CellTiter-Glo cell viability assay; type: cell-based; settings: for IC50: Homo sapiens, G-401, G401, RENAL, Rhabdoid Tumor, 72 hours
Method: as §1, §2, §3, §4, §5

HepG2 = experiment: CellTiter-Glo cell viability assay; type: cell-based; settings: for IC50: Homo sapiens, HepG2, LIVER, HCC, 72 hours
Method: as §1, §2, §3, §4, §5

BT-20 = experiment: CellTiter-Glo cell viability assay; type: cell-based; settings: for IC50: Homo sapiens, BT-20, BREAST, Carcinoma, 72 hours
Method: as §1, §2, §3, §4, §5

L363 = experiment: CellTiter-Glo cell viability assay; type: cell-based; settings: for IC50: Homo sapiens, L-363, L363, HEMATOPIETIC, MM, 72 hours
Method: as §1, §2, §3, §4, §5

MOLM-13 = experiment: CellTiter-Glo cell viability assay; type: cell-based; settings: for IC50: Homo sapiens, MOLM-13, HEMATOPIETIC, AML, 72 hours
Method: as §1, §2, §3, §4, §5

[1] = Pharmacokinetics studies in mice; type: in vivo; settings: for AUC(0-inf) / AUC(0-t) / Cmax / Tmax / bioavailability / half-life / Vd/F: mouse, in vivo; for Vd/F: read-out: Vz/Fobs
Text: Volume of distribution is one of the most important pharmacokinetic properties of a drug candidate and for an anticancer drug can result in increased drug distribution to the tumor.

IGROV-1 = experiment: CellTiter-Glo cell viability assay; type: cell-based, Human; settings: for IC50: IGROV-1, OVARIAN, Human Ovarian Adenocarcinoma, 72 hours
Method: as §1, §2, §3, §4, §5

BIN-67 = experiment: CellTiter-Glo cell viability assay; type: cell-based, Human; settings: for IC50: BIN-67, OVARIAN, Human Small Cell Carcinoma of the Ovary, 72 hours
Method: as §1, §2, §3, §4, §5

OVCAR-8 = experiment: CellTiter-Glo cell viability assay; type: cell-based, Human; settings: for IC50: OVCAR-8, OVARIAN, Human Ovarian Carcinoma, 72 hours
Method: as §1, §2, §3, §4, §5

COV434 = experiment: CellTiter-Glo cell viability assay; type: cell-based, Human; settings: for IC50: COV434, OVARIAN, Human Ovarian Granulosa, 72 hours
Method: as §1, §2, §3, §4, §5

SCCOHT-1 = experiment: CellTiter-Glo cell viability assay; type: cell-based, Human; settings: for IC50: SCCOHT-1, OVARIAN, Human Small Cell Carcinoma of the Ovary, 72 hours
Method: as §1, §2, §3, §4, §5

SKOV-3 = experiment: CellTiter-Glo cell viability assay; type: cell-based, Human; settings: for IC50: SK-OV-3, SKOV-3, OVARIAN, Human Ovarian Carcinoma, 72 hours
Method: as §1, §2, §3, §4, §5

A2780cp = experiment: CellTiter-Glo cell viability assay; type: cell-based, Human; settings: for IC50: A2780C/P, A2780cp, OVARIAN, Platinum res-Human Ovarian, 72 hours
Method: as §1, §2, §3, §4, §5

OVCAR-3 = experiment: CellTiter-Glo cell viability assay; type: cell-based, Human; settings: for IC50: OVCAR-3, OVARIAN, Human Ovarian Carcinoma, 72 hours
Method: as §1, §2, §3, §4, §5

A2780 = experiment: CellTiter-Glo cell viability assay; type: cell-based, Human; settings: for IC50: A2780, OVARIAN, Human Ovarian, 72 hours
Method: as §1, §2, §3, §4, §5

[2] = IV-1 mg/kg, 5% Ethanol 5% Cremophor 90% Saline
[3] = PO-5 mg/kg, 10% Ethanol 90% Labrasol
[4] = SC-5 mg/kg, 5% Ethanol 5% Cremophor 90% Saline

CCC(C(=O)Nc1ncc(C(=O)NO)s1)c1ccc(OC)cc1 (racemic) [#1, N-hydroxy-2-(2-(4-methoxyphenyl)butanamido)thiazole-5-carboxamide]
IC50 (CT26): 1320 nM
IC50 (GL261): 372 nM
IC50 (MC38): 128 nM
IC50 (4T1): 36 nM
IC50 (L1210): 59 nM
IC50 (SKUT-1): 229 nM
IC50 (KMM-1): 20 nM
IC50 (G401): 91 nM
IC50 (HepG2): 215 nM
IC50 (BT-20): 236 nM
IC50 (L363): 44 nM
IC50 (MOLM-13): 62 nM
AUC % Extrap ([1]; PO-5 mg/kg): 5.51%
CI/Fobs ([1]; PO-5 mg/kg): 483.2 mL/min/kg
AUC(0-inf) ([1]; PO-5 mg/kg): 172 ng·h/mL
AUC(0-t) ([1]; PO-5 mg/kg): 163 ng·h/mL
Cmax ([1]; PO-5 mg/kg): 30.8 ng/mL
Tmax ([1]; PO-5 mg/kg): 30 min
bioavailability ([1]; PO-5 mg/kg): 14.3%
half-life ([1]; PO-5 mg/kg): 326 min
Vd/F ([1]; PO-5 mg/kg): 228 L/kg
IC50 (IGROV-1): 78 nM
IC50 (BIN-67): 68 nM
IC50 (OVCAR-8): 36 nM
IC50 (COV434): 47 nM
IC50 (SCCOHT-1): 341 nM
IC50 (SKOV-3): 113 nM
IC50 (A2780cp): 117 nM
IC50 (OVCAR-3): 65 nM
IC50 (A2780): 48 nM

CC[C@H](C(=O)Nc1ncc(C(=O)NO)s1)c1ccc(OC)cc1 [#1a, (S)—N-hydroxy-2-(2-(4-methoxyphenyl)butanamido)thiazole-5-carboxamide]
IC50 (CT26): 465 nM
#1/#1a (CT26; ratio of IC50, CT26): 2.83
#1b/#1a (CT26; ratio of IC50, CT26): 6.91
IC50 (GL261): 132 nM
#1/#1a (GL261; ratio of IC50, GL261): 2.82
#1b/#1a (GL261; ratio of IC50, GL261): 9.11
IC50 (MC38): 58 nM
#1/#1a (MC38; ratio of IC50, MC38): 2.21
#1b/#1a (MC38; ratio of IC50, MC38): 8.5
IC50 (4T1): 23 nM
#1/#1a (4T1; ratio of IC50, 4T1): 1.57
#1b/#1a (4T1; ratio of IC50, 4T1): 8.04
IC50 (L1210): 38 nM
#1/#1a (L1210; ratio of IC50, L1210): 1.55
#1b/#1a (L1210; ratio of IC50, L1210): 8.53
IC50 (SKUT-1): 215 nM
#1/#1a (SKUT-1; ratio of IC50, SKUT-1): 1.07
#1b/#1a (SKUT-1; ratio of IC50, SKUT-1): 5.86
IC50 (KMM-1): 19 nM
#1/#1a (KMM-1; ratio of IC50, KMM-1): 1.05
#1b/#1a (KMM-1; ratio of IC50, KMM-1): 5.53
IC50 (G401): 50 nM
#1/#1a (G401; ratio of IC50, G401): 1.82
#1b/#1a (G401; ratio of IC50, G401): 8.14
IC50 (HepG2): 76 nM
#1/#1a (HepG2; ratio of IC50, HepG2): 2.83
#1b/#1a (HepG2; ratio of IC50, HepG2): 8.3
IC50 (BT-20): 93 nM
#1/#1a (BT-20; ratio of IC50, BT-20): 2.54
#1b/#1a (BT-20; ratio of IC50, BT-20): 8.16
IC50 (L363): 21 nM
#1/#1a (L363; ratio of IC50, L363): 2.1
#1b/#1a (L363; ratio of IC50, L363): 8.1
IC50 (MOLM-13): 28 nM
#1/#1a (MOLM-13; ratio of IC50, MOLM-13): 2.21
#1b/#1a (MOLM-13; ratio of IC50, MOLM-13): 7.46
AUC % Extrap [1, 2]: 0.20%
CI/Fobs [1, 2]: 156 mL/min/kg
AUC % Extrap ([1]; PO-5 mg/kg): 1.93%
CI/Fobs ([1]; PO-5 mg/kg): 1122 mL/min/kg
AUC % Extrap [1, 3]: 1.93%
CI/Fobs [1, 3]: 1122 mL/min/kg
AUC % Extrap [1, 4]: 0.85%
CI/Fobs [1, 4]: 240.3 mL/min/kg
AUC(0-inf) [1, 2]: 107 ng·h/mL
AUC(0-t) [1, 2]: 106 ng·h/mL
Cmax [1, 2]: 131 ng/mL
Tmax [1, 2]: 15 min
half-life [1, 2]: 55.8 min
AUC(0-inf) ([1]; PO-5 mg/kg): 74.3 ng·h/mL
AUC(0-t) ([1]; PO-5 mg/kg): 72.8 ng·h/mL
Cmax ([1]; PO-5 mg/kg): 28.7 ng/mL
Tmax ([1]; PO-5 mg/kg): 30 min
bioavailability ([1]; PO-5 mg/kg): 13.9%
half-life ([1]; PO-5 mg/kg): 332 min
Vd/F ([1]; PO-5 mg/kg): 537 L/kg
AUC(0-inf) [1, 4]: 347 ng·h/mL
AUC(0-t) [1, 4]: 344 ng·h/mL
Cmax [1, 4]: 252 ng/mL
Tmax [1, 4]: 15 min
bioavailability [1, 4]: 65.1%
half-life [1, 4]: 73.2 min
Vd/F [1, 4]: 25.3 L/kg
IC50 (IGROV-1): 54 nM
#1/#1a (IGROV-1; ratio of IC50, IGROV-1): 1.44
#1b/#1a (IGROV-1; ratio of IC50, IGROV-1): 9.07
IC50 (BIN-67): 51 nM
#1/#1a (BIN-67; ratio of IC50, BIN-67): 1.33
#1b/#1a (BIN-67; ratio of IC50, BIN-67): 8.82
IC50 (OVCAR-8): 21 nM
#1/#1a (OVCAR-8; ratio of IC50, OVCAR-8): 1.71
#1b/#1a (OVCAR-8; ratio of IC50, OVCAR-8): 5.38
IC50 (COV434): 35 nM
#1b/#1a (COV434; ratio of IC50, COV434): 9.69
IC50 (SCCOHT-1): 293 nM
#1/#1a (SCCOHT-1; ratio of IC50, SCCOHT-1): 1.16
#1b/#1a (SCCOHT-1; ratio of IC50, SCCOHT-1): 0.63
IC50 (SKOV-3): 63 nM
#1/#1a (SKOV-3; ratio of IC50, SKOV-3): 1.79
#1b/#1a (SKOV-3; ratio of IC50, SKOV-3): 8.08
IC50 (A2780cp): 62 nM
#1/#1a (A2780cp; ratio of IC50, A2780cp): 1.89
#1b/#1a (A2780cp; ratio of IC50, A2780cp): 6.1
IC50 (OVCAR-3): 39 nM
#1/#1a (OVCAR-3; ratio of IC50, OVCAR-3): 1.67
#1b/#1a (OVCAR-3; ratio of IC50, OVCAR-3): 6.26
IC50 (A2780): 32 nM
#1/#1a (A2780; ratio of IC50, A2780): 1.5
#1b/#1a (A2780; ratio of IC50, A2780): 6.84

From patent US11420947B2, “(S)-n-hydroxy-2-(2-(4-methoxyphenyl)butanamido)thiazole-5-carboxamide and pharmaceutically acceptable salts thereof” (TRANSLATIONAL DRUG DEVELOPMENT, LLC, priority 2018, dated 2022)
